Bridge positions count the residues as written; N and C are the ends. Ends that are not written are not given here. I, II: the chains in the order shown. * marks the point of attachment. Palmitoyl = CCCCCCCCCCCCCCCC(=O)*
Tests used:
[1] = Rheology of PA hydrogels (strain sweep, G′/G″ crossover); assay type: physicochemical; conditions: PA gels, 10 mol % co-assemblies
Method: Gels were made using 2 wt % PA solutions prepared as previously described, using 10 mol % co-assemblies of epitope PA with diluent PA. 12-well chamber slides (Ibidi) were coated with 0.01 mg/mL poly-D-lysine (Sigma-Aldrich) solution and incubated overnight at 37° C. The wells were washed three times with water and air-dried for at least 30 minutes. 120 μL of PA solution was pipetted evenly into the well and gelling solution comprised of 110 mM NaCl, 3 mM KCl, and 25 mM CaCl2 was pipetted dropwise on top of the PA solution. The gels were incubated at 37° C. for 30 minutes, and then excess gelling solution was removed.
Measurements were performed on an Anton Paar MCR302 rheometer with a 25 mm parallel-plate fixture. 120 μL of the PA/HA hybrid slurry was placed on the bottom plate and 30 μL of a 50 mM CaCl2/75 mM NaCl gelling solution was placed on the upper fixture. The fixture was lowered to a gap of 0.5 mm for 10 min during which time a 0.1% oscillatory strain was applied with a 10 rad/s angular frequency. The gap height was allowed to vary to keep the normal force at 0 N. Next, a strain sweep was performed at 10 rad/s from 0.1% to 100% strain to measure the strain to break the gel.

[2] = Cryo-TEM of PA nanostructures; assay type: physicochemical; conditions: 10 mol % co-assembly with diluent backbone PA
Method: 300-mesh copper grids with lacey carbon film (Electron Microscopy Sciences) were glow discharged for 30 seconds in a PELCO easiGlow system (Ted Pella, Inc.). PA solutions were prepared as previously described and then diluted to 1 mM in water before imaging. 7 μL of PA solution was placed onto grids, blotted, and plunge-frozen in liquid ethane using an FEI Vitrobot Mark IV (FEI), maintained at 95-100% humidity. While submerged in liquid nitrogen, vitrified samples were transferred to a Gatan 626 cryo-holder (Gatan) and imaged on a JEOL 1230 TEM operating at 100 kV accelerating voltage. Liquid nitrogen temperatures were maintained during imaging, and micrographs were captured with a Gatan 832 CCD camera.

[3] = Fluorescence anisotropy of TAMRA-labeled epitopes; assay type: physicochemical; conditions: 10 mol % co-assembly
Method: PA co-assemblies of diluent PA, TGF-β1 mimetic PA, and fluorescent dye-conjugated TGF-β1 mimetic PA were prepared in a 90:8:2 mol % ratio. The dye-conjugated PA was synthesized as previously described with a tetramethylrhodamine (TAMRA) molecule conjugated to the N-terminal amine of the TGF-β1 mimetic epitope. The PA solutions were prepared as previously described and diluted immediately before measurement to 100 μM PA, 100 μM CaCl2), and 30 mM NaCl. Fluorescence measurements were performed on an ISS PC1 photon counting steady-state fluorescence spectrometer equipped with a 300 W xenon arc lamp with power set to 18 A. Excitation slit widths of 1 mm (8 nm bandwidth) and emission slit widths of 0.5 mm (4 nm bandwidth) were used. Fluorescence anisotropy measurements were performed with λex=554 nm and λem=580 nm according to the equation:
[formula] Where F∥ is the intensity parallel to the excitation plane, F⊥ is the intensity perpendicular to the excitation plane, and g is the g-factor, which accounts for differences in emissions between the perpendicular and parallel gratings.^1 Measurements were taken in triplicate and averaged for final data analysis. Transverse-Relaxation Nuclear Magnetic Resonance Spectroscopy

[4] = system: Smad2 phosphorylation (intracellular TGF-β1 signaling) in human chondrocytes; test: Western blot of phosphorylated Smad2 after 4 h treatment; assay type: cell-based; conditions: for p-Smad2 activation: 50 μM, 4 h
Method: (§1) For western blot of 4 h PA treatments, cells were seeded in 6-well plates at a density of 600,000 cells/well and cultured for 24 h. […] Cells were then treated with PA in solution for 4 h in vitro. For western blot of 3-day PA treatments, cells were seeded in 6-well plates at a density of 230,000 cells/well and cultured for 24 h. Cells were then treated with PA in solution for 3 days in vitro.
(§2) Protein was extracted from cells using Halt Protease and Phosphatase Inhibitor Cocktail (Thermo Scientific) and a BCA assay (Thermo Scientific) was performed to determine protein content of each sample. Cell protein was loaded into and separated using a 4-20% SDS-PAGE gel (Bio-Rad). It was then electrotransferred from the gel to a nitrocellulose membrane (Bio-Rad). The membranes were blocked with 10% milk solution (Bio-Rad) for 30 minutes followed by an overnight incubation with primary antibodies at 4° C. The following primary antibodies were used: rabbit anti-pSmad2 (1:1000, Cell Signaling), rabbit anti-Smad2 (1:1000, Cell Signaling), rabbit anti-Sox9 (1:500, Abcam), mouse anti-Aggrecan (1:500, ThermoFisher), rabbit anti-COMP/Cartilage oligomeric matrix protein (1:500, Abcam), mouse anti-Collagen II (1:500, ThermoFisher), and mouse anti-Actin (1:1000, Novus Bio). Membranes were then incubated with their corresponding secondary HRP-conjugated antibodies (1:1000, ThermoFisher). Protein signals were detected using Radiance Bioluminescent ECL substrate (Azure Biosystems). Densitometry analysis, standardized to total receptor content or actin as a control for protein loading, was performed using ImageJ software. For quantification, experimental triplicate samples were analyzed, and two different experiments were conducted.

[5] = system: collagen II, COMP, aggrecan and Sox9 in human chondrocytes; test: Western blot of ECM proteins after three days treatment; assay type: cell-based; conditions: 10 μM, three days in vitro
Method: as §1, §2

[6] = system: C28/I2 human articular chondrocytes
Method: PA solutions (backbone PA, TGF PA, ln TGF PA, and peptide only) were prepared at 1 wt % as previously described, under sterile conditions. For cell treatments lasting <24 h, PA treatment solutions or native rhTGF-β1 protein (R&D Systems) were diluted in starvation medium, which comprised of DMEM High Glucose Medium (Gibco) supplemented with 0.5% fetal bovine serum (Denville Scientific), 100 U/mL penicillin, and 100 μg/mL streptomycin (Gibco). For cell treatments lasting 24 h or more, PA treatment solutions or native rhTGF-β1 protein (R&D Systems) were diluted in complete growth medium. PA solutions were prepared at a range of concentrations, 1, 10, 50, and 100 μM, where the concentration refers to the concentration of the epitope PA.
For cell viability assays, cells were seeded in 48-well plates at a density of approximately 15,400 cells/well and cultured for 24 h. Cells were then treated with PA in solution for 24 h or 3 days in vitro.
For 2D viability assays, cells were cultured and treated with PA solutions in vitro as previously described. After 24 h or 3 days of culture, cells were washed with HBSS (Gibco), and media was exchanged with HBSS containing 2 μM Calcein AM (Invitrogen) and 100 ng/mL propidium iodide (Sigma-Aldrich) for 30 minutes at 37° C. Cells were washed with HBSS and imaged.

For “TGF PA-a: backbone PA-a (SEQ ID NO: 7) conjugated to cyclic TGF-β1 mimetic peptide (SEQ ID NO: 1) by a linker; co-assembled with diluent Backbone PA-a (chain Palmitoyl-AAEEK-OH; peptide CESPLKRQC; disulfide II:1-II:9; not fully specified (some residues); also: co-assembled with diluent backbone PA-a)”, the “G′/G″ crossover % strain” value [1] was 5.80 ± 1.40%, the “G′/G″ crossover storage modulus” value [1] was 0.63 ± 1.14 kPa and the “width of ribbon-like nanostructures” value [2] was 50-60 nm. The “fluorescence anisotropy (epitope rotational diffusion), compared to TGF PA-b” value [3] was “significantly lower anisotropy values”, the p-Smad2 activation ([4]; 10 mol % co-assemblies) was “upregulated p-Smad2 significantly more than all other PA treatments” and the p-Smad2 activation ([4]; 10 mol % co-assembly) was “strong p-Smad2 activation”. For the same substance, the “activation of p-Smad2 with addition of pan-TGF-β-neutralizing antibody 1D11” value ([4]; with vs without 1D11) was “effectively neutralized”, the “significance of the neutralizing effect of 1D11 on p-Smad2 activation” value ([4]; with vs without 1D11) was “statistically significant” and the “ECM synthesis (collagen II, COMP, aggrecan, Sox9)” value [5] was “upregulated ECM synthesis significantly more than all other PA treatments”. For the same substance, the “levels of collagen II compared with native rhTGF-β1 protein” value [5] was “significantly higher levels of collagen II” and the “biocompatibility compared with corresponding Backbone PA-b systems” value [6] was “higher biocompatibility”.

From US12570709B2, “Self-assembling peptide amphiphiles displaying a transforming growth factor beta 1 (TGF-ß1) mimetic epitope” (Northwestern University, priority 2021, dated 2026)
